Where a SMILES comes first, the peptide text is derived from it. [ ]: non-standard residue; d: D form.
Key:
red blood cells = assay: Hemolysis; type: cell-based, human; details: 4 hours
Experimental: Hemolysis: Peptide induced hemolysis was evaluated according to methods described previously [Hilchie, A. L., et al. (2016). Mastoparan is a membranolytic anti-cancer peptide that works synergistically with gemcitabine in a mouse model of mammary carcinoma. Biochimica Et Biophysica Acta, 1858(12), 3195-3204]. Briefly, red blood cells were obtained, with human ethics approval, from the blood of healthy volunteers collected in a sodium heparin tube and then rinsed three times in PBS, centrifuging between washes, to obtain the hematocrit (100% RBC). A 2.5% RBCs suspension was exposed to peptide at varying concentrations and incubated at 37 C in a 5% CO2 humidified atmosphere for 4 hours. Supernatants were collected following centrifugation (1100 rpm) and transferred to a flat bottom microtitre plate. The absorbance (490 nm) of each supernatant was measured on a BioTek Epoch Microplate Spectrophotometer. Percent hemolysis was calculated by comparing the absorbance arising from peptide treated cells to RBCs treated with […] (0% hemolysis) or lysed with 1% Triton X-100 (100% hemolysis).

[1] = Peptide aggregation in RPMI + 10% FBS with PBMCs (microscopy); type: physicochemical; details: overnight
Experimental: Peptide Aggregation: Peptide aggregation was assessed qualitatively by examining samples of peptides mixed with PBMCs following overnight incubation at 37 °C and 5% CO2. All samples were prepared in RPMI media containing 10% FBS the same manner as the cytotoxicity assays described above. Visualization of aggregates was done using a Nikon Eclipse TS100 Inverted Microscope at 10× magnification.
In aggregation studies, peptides were added to PBMCs in RPMI media containing 10% FBS and incubated overnight at 37 °C in 5% CO2.
The peptides were also evaluated for their tendency to aggregate when added to RPMI tissue culture media containing 10% fetal bovine serum in the presence of PBMCs. Peptides were added to PBMCs in RPMI media containing 10% FBS and incubated overnight at 37 °C in 5% CO2. […] Compared to a highly aggregation prone peptide, 1018 [Haney, E. F., et al. (2017). Aggregation and its influence on the immunomodulatory activity of synthetic innate defense regulator peptides.
As with the DJK-5 derivatives above, the AB103-D derivatives were evaluated for their tendency to aggregate when added to RPMI tissue culture media containing 10% fetal bovine serum in the presence of PBMCs. Peptides were added to PBMCs in RPMI media containing 10% FBS and incubated overnight at 37 °C in 5% CO2.

[2] = test system: 3-day-old oral plaque biofilms; assay: Oral plaque biofilm model, brief (1 minute) exposure, dead cell volume; type: cell-based; details: 10 μg/mL, 1 minute (FIG. 11)
[3] = test system: peripheral blood mononuclear cells (PBMCs); assay: Cytotoxicity (LDH release), PBMCs
[4] = test system: 3-day-old oral plaque (multispecies) biofilms; assay: Oral plaque biofilm model, long-term (1-3 days) exposure, dead cell volume; type: cell-based; details: 10 μg/mL, 1 or 3 days (FIG. 10)
[5] = test system: MRSA biofilms (USA300 LAC); details: SPOT peptides
[6] = Subdermal murine toxicity model; details: 1 hour after subcutaneous administration; comparator DJK-5
Experimental: FIGS. 14A-14B show murine subdermal toxicity assessment of AB103-D derived peptides. Clinical scores were recorded for each peptide treated mouse one hour after peptide administration (FIG. 14A). […] The presence of a cyst or lesion was recorded 16 hours after peptide administration and the size of the cyst was measured using calipers (FIG. 14B). Data shown are the mean of two independent replicates at a peptide dose of 4 mg/kg.
Subdermal murine toxicity model: A subdermal toxicity mouse model was used to evaluate whether peptides induced localized toxicity of treated cutaneous tissue. Mice were anesthetized with 2.5-3% isoflurane and their fur was removed by shaving followed by application of a chemical depilatory. […] Mice were visually assessed and received clinical scores for a battery of signs or symptoms (activity/behaviour change, appearance/grooming, hydration, pain, cyst formation), for which a score of zero was given to animals that appeared normal. Animals were weighed and clinical scores were totalled. Following an overnight (16 h) incubation, mice were scored and weighed then euthanized with CO2 followed by cervical dislocation. Mice were imaged and cysts (swollen, inflamed tissue) were measured using a caliper. Animal experiments were performed in accordance with the Canadian Council on Animal Care (CCAC) guidelines and were approved by the University of British Columbia Animal Care Committee. Female CD-1 mice were purchased from Charles River Laboratories, Inc. (Wilmington, MA). All mice were 8 weeks of age and weighed 25±5 g at the time of the experiment. Animals were group housed in cohorts of three to four littermates. Standard animal husbandry practices were employed.

[7] = test system: P. aeruginosa PAO1 biofilms; details: P. aeruginosa PAO1 biofilms; >95% pure peptides; crystal violet; BM2 minimal media
MRSA USA300 biofilms = assay: Biofilm inhibition by >95% pure peptides (crystal violet), MRSA; type: cell-based, methicillin resistant Staphylococcus aureus; details: MRSA USA300 biofilms, >95% pure peptides, 10% TSB + 0.1% glucose
[8] = test system: P. aeruginosa PAO1 biofilms; assay: Biofilm inhibition by SPOT-synthesized AB103-D variants (crystal violet), P. aeruginosa; type: cell-based, Pseudomonas aeruginosa; details: P. aeruginosa PAO1, SPOT peptides
E. coli O157:H7 = assay: Biofilm inhibition (at least 80%), E. coli; type: cell-based, Escherichia coli; details: n = 3, BM2 minimal media, 18-24 hours, crystal violet
[9] = test system: Enterobacter cloacae 218R1; assay: Biofilm inhibition (at least 80%), E. cloacae; type: cell-based; details: E. cloacae 218R1; n = 3; BM2 minimal media; 18-24 hours; crystal violet
MRSA USA300 = assay: Biofilm inhibition (at least 80%), MRSA; type: cell-based, methicillin resistant Staphylococcus aureus; details: n = 4, 10% TSB + 0.1% glucose, 18-24 hours, crystal violet
P. aeruginosa PAO1 = assay: Biofilm inhibition (at least 80%), P. aeruginosa; type: cell-based, Pseudomonas aeruginosa; details: n = 4, BM2 minimal media, 18-24 hours, crystal violet
[10] = test system: Enterococcus faecium #2-1; assay: Biofilm inhibition (at least 80%), E. faecium; type: cell-based; details: E. faecium #2-1; n = 3; TSB + 1% glucose; 48 hours; crystal violet
[11] = test system: Acinetobacter baumannii Ab5075; assay: Biofilm inhibition (at least 80%), A. baumannii; type: cell-based; details: n = 4, BM2 minimal media, 18-24 hours, crystal violet
[12] = test system: Klebsiella pneumonia KPLN649; assay: Biofilm inhibition (at least 80%), K. pneumonia; type: cell-based; details: K. pneumoniae KPLN649; n = 3; BM2 minimal media; 48 hours; crystal violet

## CC[C@@H](C)[C@@H](NC(=O)[C@@H](C)NC(=O)[C@@H](CCCNC(=N)N)NC(=O)[C@@H](Cc1c[nH]c2ccccc12)NC(=O)[C@@H](CCC(N)=O)NC(=O)[C@H](N)C(C)C)C(=O)N[C@@H](C(=O)N[C@@H](C(=O)N[C@H](CCCNC(=N)N)C(=O)N[C@@H](C(=O)N[C@@H](C(=O)N[C@H](CCCNC(=N)N)C(N)=O)[C@H](C)CC)C(C)C)C(C)C)[C@H](C)CC [AB106-D, vqwraiivrvir-NH2] (H-[dV][dQ][dW][dR][dA][dI][dI][dV][dR][dV][dI][dR]-NH2)
Red blood cells
  Hemolysis: only marginally toxic at the highest peptide concentration evaluated
[1]; 200 μg/ml or highest concentration
  Peptide aggregation: marginal peptide aggregation
[2]
  Killing of oral plaque biofilms, brief exposure: comparable to or better than peptide DJK-5
[3]
  Cytotoxicity (LDH): only marginally toxic at the highest peptide concentration evaluated
[4]
  Killing of oral plaque biofilms, long-term exposure: activity comparable to peptide DJK-5

## CC[C@@H](C)[C@@H](NC(=O)[C@H](NC(=O)[C@@H](CCCNC(=N)N)NC(=O)[C@H](NC(=O)[C@@H](CCCNC(=N)N)NC(=O)[C@H](NC(=O)[C@H](NC(=O)[C@@H](CCCNC(=N)N)NC(=O)[C@@H](Cc1c[nH]c2ccccc12)NC(=O)[C@@H](CCC(N)=O)NC(=O)[C@H](N)C(C)C)C(C)C)[C@H](C)CC)C(C)C)C(C)C)C(=O)N[C@H](CCCNC(=N)N)C(N)=O [AB108-D, vqwrvirvrvir-NH2] (H-[dV][dQ][dW][dR][dV][dI][dR][dV][dR][dV][dI][dR]-NH2)
[5]; MRSA, three concentrations (FIG. 1)
  Biofilm inhibitory activity compared to DJK5: only slightly lower than the DJK5 sample

## CC[C@@H](C)[C@@H](NC(=O)[C@@H](C)NC(=O)[C@@H](CCCNC(=N)N)NC(=O)[C@@H](Cc1c[nH]c2ccccc12)NC(=O)[C@@H](CCC(N)=O)NC(=O)[C@H](NC(=O)[C@@H](CCCNC(=N)N)NC(=O)[C@H](NC(=O)[C@H](NC(=O)[C@@H](CCCNC(=N)N)NC(=O)[C@H](NC(=O)[C@H](N)CCCCN)C(C)C)C(C)C)[C@H](C)CC)C(C)C)C(N)=O [AB117-D, kvrvirvqwrai] (H-[dK][dV][dR][dV][dI][dR][dV][dQ][dW][dR][dA][dI]-NH2)
[1]; 50 μg/ml
  Peptide aggregation: slightly
[6]
  Clinical score: < 2
[5]; MRSA biofilms
  Better activity vs. MRSA cf. AB103-D: ~2 fold
[7]
  minimum inhibitory concentration of peptide that inhibited at least 90% of biofilm growth (MBIC90): 8 µM
MRSA USA300 biofilms
  minimum inhibitory concentration of peptide that inhibited at least 90% of biofilm growth (MBIC90): 0.5 µM
[8]
  Activity against PAO1 biofilms compared to AB103-D: activity superior to that of AB103-D

## CN[C@H](CC(C)C)C(=O)N[C@H]1C(=O)N[C@@H](CC(N)=O)C(=O)N[C@H]2C(=O)N[C@H]3C(=O)N[C@H](C(=O)N[C@H](C(=O)O)c4cc(O)cc(O)c4-c4cc3ccc4O)[C@H](O)c3ccc(c(Cl)c3)Oc3cc2cc(c3O[C@@H]2O[C@H](CO)[C@@H](O)[C@H](O)[C@H]2O[C@H]2C[C@](C)(N)[C@H](O)[C@H](C)O2)Oc2ccc(cc2Cl)[C@H]1O [VAN]
E. coli O157:H7
  Peptide/Antibiotic Concentration where at least 80% of biofilm growth was inhibited: 16 µg/mL
[9]
  Peptide/Antibiotic Concentration where at least 80% of biofilm growth was inhibited: 64 µg/mL
MRSA USA300
  Peptide/Antibiotic Concentration where at least 80% of biofilm growth was inhibited: 0.25 µg/mL
P. aeruginosa PAO1
  Peptide/Antibiotic Concentration where at least 80% of biofilm growth was inhibited: >256 µg/mL
[10]
  Peptide/Antibiotic Concentration where at least 80% of biofilm growth was inhibited: >256 µg/mL
[11]
  Peptide/Antibiotic Concentration where at least 80% of biofilm growth was inhibited: 8 µg/mL
[12]
  Peptide/Antibiotic Concentration where at least 80% of biofilm growth was inhibited: 128 µg/mL

From patent US20260374818A1, “CATIONIC PEPTIDES WITH BROAD SPECTRUM ACTIVITY” (priority 2023, published 2026)
